Test results taken from patent US12350337B2, “Polymeric drug delivery conjugates and methods of making and using thereof” (UNIVERSITY OF UTAH RESEARCH FOUNDATION, priority 2019, dated 2025).
Where no end group is shown, it is not given here. [ ]: non-standard residue; d: D form.

How the values were obtained:
4T1 tumors [1] = assay: In vivo ICD induction and immune cell analysis after two doses; design: species or system BALB/c mice; details: Day 15
Experimental: (§1) Fluorescence intensities were normalized to the same scale. Black circles indicate the tumor. (B) In vivo tumor cell uptake of EPI after the mice were treated with either free EPI or KT-1 (10 mg/kg EPI equivalence) at 1, 4, 7 days post injection. Data represent n=5 independently analyzed mice/group. […] Blue: cell nuclei; Green: EPI; Red: CRT. […] Data are represented as box plots (whiskers, 5th to 95th percentile). n=4 for saline and EPI treatments, and n=6 for KT-1 treatment, from a representative experiment from two independent experiments. * P<0.05 by student's t-test.
Having shown tumor-targeted delivery of KT-1, KT-1's impact on inducing ICD that implicates calreticulin (CRT) expression and high-mobility group box 1 (HMGB1) release was examined. CRT exposed on the surfaces of immunogenically dying tumor cells sends dendritic cells (DCs) an “eat me” signal to facilitate phagocytosis by antigen-presenting cells (APCs), while released HMGB1 functions as the “danger” signal and stimulates optimal antigen presentation to T cells. […] In FIG. 3D-E, BALB/c mice bearing non-immunogenic 4T1 tumors, were given two intravenous doses (on Days 7 and 14 after tumor implantation) of treatments with saline, EPI or KT-1 (first EPI equivalence dose 10 mg/kg followed by second dose 5 mg/kg).
This could be the result of efficiently triggering ICD-associated signals in tumors. […]

4T1 tumors [2] = assay: 4T1 tumor growth, survival and endpoint tumor immune analysis (EPI, KT-1, α-CD8, α-PD-L1 combinations); type: in vivo, BALB/c mice
4T1 tumors [3] = assay: In vivo tumoral PD-L1 expression and tumor-infiltrating lymphocytes after KT-1 followed by PD-L1 blockade; design: species or system BALB/c mice; details: for tumoral PD-L1 expression: KT-1 Days 7 and 14, PD-L1 blockade Day 15, two days post blockade
Experimental: (§2) (A) Schematic illustration of inhibiting PD-L1 recycling by MPPA crosslinking. (B) Lysosome colocalization with α-PD-L1-Cy5 or Cy3-labeled MPPA (P-(PPA)14-Cy3) after 3 h treatments at 37° C. Blue: nuclei; Red: Cy3/Cy5; Green: lysosome. (C) Whole cell PD-L1 expression with or without lysosome hydrolysis inhibition by E-64. 4T1 cells were treated with α-PD-L1, PPA, or MPPA for 3 h in the absence (−) or presence (+) of E-64 cysteine protease inhibitor. Afterward, cells were further incubated in cell culture medium for another 24 h, prior to PD-L1 quantification. (D) Time-dependent recovery of surface PD-L1. […] (E) In vivo tumoral PD-L1 expression, and (F) representative flow cytometry analysis plots of CD3+CD8+CTLs and CD4+ Foxp3+ Tregs after KT-1 and MPPA combination treatment as indicated by arrows in (E). n=3 in (C) and (D), and n=5 in (E) and (F), from a representative experiment from two independent experiments.
To validate the PD-L1 depletion in vivo, mice bearing 4T1-tumor were treated with α-PD-L1, PPA, or MPPA on Day 15, following two doses of KT-1 treatment on Day 7 and 14 (FIG. 7E). Tumoral PD-L1 expression and tumor-infiltrating lymphocytes were studied two days post PD-L1 blockade.

4T1 cells [4] = assay: Lysosome colocalization (confocal); type: cell-based, murine; details: 3 h at 37° C.
Experimental: as §2
(§3) Together, these findings established the polymer-facilitated crosslinking of surface PD-L1 as a potential therapeutic strategy to produce prolonged elimination of PD-L1, rather than the transient blocking afforded by standard anti-PD-L1 antibodies.

[5] = system: LLC-1 Lewis lung carcinoma cells; assay: Metastatic LLC-1 Lewis lung carcinoma model
Experimental: (I) Survival rate of mice after indicated treatments (n=5). C57BL/6 mice were intravenously inoculated with 2×10^5 LLC-1 Lewis lung carcinoma cells on day 0. Then mice were treated as described in (A). (J) The fold increases in the percentage tumor cell-reactive T cells (IFN-γ+CD8+) among PBMCs from mice in (I) on Day 25 against LLC-1 cells. (K) CD44+CD62L-memory effector CD8+ T cells in spleen from mice in (I) on Day 25. (L) Tumor burden in lungs from mice in (I) on Day 25, depicted as lung weight and hematoxylin-eosin histology analysis of lung lobe sections.* P<0.05, n.s, not significant, one-way ANOVA with Tukey's multiple comparison test.

4T1 tumors [6] = assay: 4T1 tumor therapy with PPA, MPPA and KT-1 combinations; type: in vivo, BALB/c mice
From the text: (B) Individual tumor volume, (C) body weight change, and (D) survival rate in 4T1-tumor bearing BALB/c mice over time after different treatments (n=5-10). (E) Individual tumor volume measurement after naive control mice or KT-1→MPPA treated CR mice in (D) were subcutaneously re-challenged with 4T1 or CT26 cells (n=5). (F) The representative scatter plots of the percentage of tumor cell-reactive T cells (IFN-γ+CD8+) among PBMCs from KT-1→MPPA treated CR mice in (D) against 4T1 cells or CT26 cells (n=5). (G) Mice survival curve after re-challenge by i.v. injection of 4T1 cells after initial KT-1→MPPA treatment (n=5). (H) CD44+CD62L-memory effector CD8+ T cells in spleen after 4T1 cell i.v. re-challenge (n=5).

PD-L1 [7] = target: T1, PD-L1 (Mus musculus, UniProt Q9EP73); assay: Whole cell PD-L1 expression with or without E-64; type: cell-based, murine
T1 construct: Specificity of PPA towards PD-L1 on 4T1 cells; endogenous in cells; host or cells: 4T1 cells
Experimental: as §2, §3

CT26 tumors = assay: Subcutaneous CT26 colon carcinoma model; type: in vivo, BALB/c mice
From the text: Blue: cell nuclei; Green: EPI; Red: CRT.
Moreover, KT-1→MPPA further improved the anti-tumor efficacy, and outperformed KT-1→α-PD-L1 (20% complete tumor regression), leading to complete regression of established tumors in 60% of animals (FIG. 15A).

PD-L1 [8] = target: T1, PD-L1; assay: PPA specificity to PD-L1: inhibition of Cy5-labeled anti-PD-L1 antibody binding on 4T1 cells; design: species or system murine; details: 0.2 mM, pretreatment 1 h, co-incubation 1 h, 4° C.
Experimental: (A) The PD-1/PD-L1 interaction mediated by PPA from immune escape to cancer immunotherapy. (B) Specificity of PPA towards PD-L1 on 4T1 cells. Negative control: Cy5-labeled anti-CD20 mAb rituximab (RTX) incubation with 4T1 cells at 4° C. for 1 h; Positive control: Cy5-labeled anti-PD-L1 antibody incubation with 4T1 cells at 4° C. for 1 h; PPA: 0.2 mM PPA pretreatment for 1 h and co-incubation with Cy5-labeled anti-PD-L1 antibody for 1 h 4° C. […] (C) Synthesis scheme and characterization of Cy3-labeled HPMA copolymer-PPA conjugates with different PPA valences.
PD-L1 peptide antagonist (PPA), with the amino acid sequence shown in FIG. 8A, was reported to bind PD-L1 with high affinity, and further confirmed in FIG. 8B. To achieve multimeric PD-L1 crosslinking, PPA was grafted onto HPMA copolymer to generate the multivalent polymer-PPA conjugates. By varying the ratio of the reaction components, a panel of conjugates was prepared with different valences for subsequent evaluation. Three conjugates with Cy3 labeled backbone were prepared: P-(PPA)14-Cy3, P-(PPA)4.3-Cy3, P-(PPA)1.3-Cy3, with the subscript denotes the valence. Additionally, unlabeled MPPA for receptor depletion studies was prepared with degradable backbone.

PD-L1 [9] = target: T1, PD-L1; details: cited from earlier work
4T1 cells [10] = assay: Internalization of surface bound P-(PPA)x-Cy3; type: cell-based, murine; details: 37° C., compared with low-valence P-(PPA)1.3-Cy3 and P-Cy3
Experimental: Then surface PD-L1 along with receptor-bound conjugates were removed by proteinase-K digestion (0.4 mg/mL, 20 min, 37° C.), and flow cytometry was used to measure the internalized conjugates. Experiments were conducted in triplicate.
as §3

4T1 tumor = system: 4T1 tumor; design: species or system BALB/c mice; details: mouse, in vivo, iv
Experimental: as §1
KT-1, a degradable diblock HPMA copolymer-EPI conjugate with narrow polydispersity, was synthesized via one step reversible addition-fragmentation chain transfer (RAFT) polymerization and characterized in FIG. 2B and the techniques provided in Yang et al., J. Controlled Release, 218 (2015) 36-44. KT-1 has long-lasting retention in tumors. […] In contrast, KT-1-Cy5 profoundly accumulated at tumor site, which peaked at 24 h and lasted for at least 196 h.

[11] = 3 weekly treatments, EPI equivalence 10 mg/kg then two doses 5 mg/kg
[12] = KT-1 Days 7 and 14, PD-L1 blockade Day 15

T1 sequence (Q9EP73 19-290): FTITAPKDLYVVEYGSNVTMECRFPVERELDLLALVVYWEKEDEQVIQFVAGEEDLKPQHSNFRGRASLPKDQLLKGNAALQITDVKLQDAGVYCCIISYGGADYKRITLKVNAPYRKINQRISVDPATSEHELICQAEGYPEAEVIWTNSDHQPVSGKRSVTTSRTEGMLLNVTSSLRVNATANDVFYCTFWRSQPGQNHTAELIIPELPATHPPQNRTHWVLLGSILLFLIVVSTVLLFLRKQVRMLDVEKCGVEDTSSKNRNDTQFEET

COc1cccc2c1C(=O)c1c(O)c3c(c(O)c1C2=O)C[C@@](O)(C(=O)CO)C[C@@H]3O[C@H]1C[C@H](N)[C@@H](O)[C@H](C)O1 [EPI, Epirubicin]
frequency of CD11c+CD11b+Ly6c+CD86+ cells in tumor-draining lymph nodes (4T1 tumors [1]): failed to generate the subset of CD11c+CD11b+Ly6c+ DCs
animal survival (4T1 tumors [2]; [11]): limited effect
tumor growth (4T1 tumors [2]; [11]): limited effect on controlling tumor
tumor PD-L1 expression after chemotherapy (4T1 tumors [2]; endpoint of 3 weekly treatments): adaptively enriched

MPPA: backbone-degradable HPMA copolymer grafted with multiple copies of PD-L1 peptide antagonist PPA, valence 12.6 (CNYSKPTDRQYHF)
tumor infiltration of CTLs (4T1 tumors [3]; [12]): did not further enhance tumor infiltration of CTLs
tumoral PD-L1 expression (4T1 tumors [3]): further reduction in PD-L1 expression
lysosome colocalization (4T1 cells [4]): substantial MPPA internalized into lysosome
median survival ([5]; C57BL/6 mice, i.v. LLC-1 cells): 28 days
reactive IFN-γ+CD8+ T cells in PBMCs and CD8+CD62L-CD44+ effector memory T cells in spleen ([5]; Day 25): none of the treatments with saline, α-PD-L1, or MPPA increased the number
tumor growth / therapeutic efficacy (4T1 tumors [6]): slightly better therapeutic efficacy than PPA
PD-L1 depletion (PD-L1 [7]; 24 h post cell binding, without E-64): depleted PD-L1 to a higher degree than α-PD-L1
PD-L1 depletion in the presence of E-64 (PD-L1 [7]; E-64 cysteine protease inhibitor present): alleviated MPPA-triggered PD-L1 depletion
tumor growth (CT26 tumors; CT26, KT-1 days 7, 14, 21, anti-PD-L1 therapy days 15, 22): marginal effect in inhibiting tumor growth
PD-L1 expression in CT26 tumors (CT26 tumors; Day 17, after KT-1 Days 7 and 14, one dose Day 15): more profound decrease in PD-L1 expression than α-PD-L1

NYSKPTDRQYHF [PPA]
Tregs in tumors (4T1 tumors [3]; [12]): depleted Tregs
tumor infiltration of CTLs (4T1 tumors [3]; [12]): did not further enhance tumor infiltration of CTLs
tumoral PD-L1 expression (4T1 tumors [3]): downregulated PD-L1 expression
tumor growth / therapeutic efficacy (4T1 tumors [6]): barely delayed tumor growth
cell surface binding of anti-PD-L1 antibody after pretreatment (PD-L1 [8]): significantly inhibited
binding to PD-L1 (reported) (PD-L1 [9]): high affinity

P-(PPA)4.3-Cy3 ([dN][dY][dS][dK][dP][dT][dD][dR][dQ][dY][dH][dF]; also: conjugated to (PPA)4.3 and Cy3, places not given here)
internalization rate (4T1 cells [10]): accelerated internalization rates

P-(PPA)14-Cy3 ([dN][dY][dS][dK][dP][dT][dD][dR][dQ][dY][dH][dF]; also: conjugated to (PPA)14 and Cy3, places not given here)
internalization rate (4T1 cells [10]): accelerated internalization rates

cyanine 5 [Cy5]
tumor retention (in words) (4T1 tumor): rapidly eliminated from the tumor and barely detectable after 2 h post-injection
